Measurements taken from PubChem BioAssay AID1919006 (Molecular Pharmacology Branch, DTP, NCI, 2023).

System: 885512-296-R-J2-PDC complex spheroid growth, % test/control
Experiment: Anticancer human tumor 885512-296-R-J2-PDC patient-derived breast carcinoma cell line growth inhibition [AhR]
Details: for IC50: curve of first compound; for viability, T/C: stronger effect = lower value
How it was run: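 Agents were dosed in half-log steps down from roughly clinical Cmax, or from 10 microM where Cmax was unknown, alone and with AhR antagonists. Read-out: percent test/control growth of tumor spheroids containing HUVEC and MSC stromal cells.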

[1] = second compound 0.1 µM, first compound 0.0316 µM
[2] = second compound 0.1 µM, first compound 0.1 µM
[3] = second compound 0.1 µM, first compound 0.316 µM
[4] = second compound 0.1 µM, first compound 1 µM
[5] = second compound 0.1 µM, first compound 3.16 µM
[6] = second compound 0.1 µM, first compound 10 µM
[7] = second compound 0.316 µM, first compound 0.0316 µM
[8] = second compound 0.316 µM, first compound 0.1 µM
[9] = second compound 0.316 µM, first compound 0.316 µM
[10] = second compound 0.316 µM, first compound 1 µM
[11] = second compound 0.316 µM, first compound 3.16 µM
[12] = second compound 0.316 µM, first compound 10 µM
[13] = second compound 1 µM, first compound 0.0316 µM
[14] = second compound 1 µM, first compound 0.1 µM
[15] = second compound 1 µM, first compound 0.316 µM
[16] = second compound 1 µM, first compound 1 µM
[17] = second compound 1 µM, first compound 3.16 µM
[18] = second compound 1 µM, first compound 10 µM
[19] = second compound 3.16 µM, first compound 0.0316 µM
[20] = second compound 3.16 µM, first compound 0.1 µM
[21] = second compound 3.16 µM, first compound 0.316 µM
[22] = second compound 3.16 µM, first compound 1 µM
[23] = second compound 3.16 µM, first compound 3.16 µM
[24] = second compound 3.16 µM, first compound 10 µM
[25] = second compound 10 µM, first compound 0.0316 µM
[26] = second compound 10 µM, first compound 0.1 µM
[27] = second compound 10 µM, first compound 0.316 µM
[28] = second compound 10 µM, first compound 1 µM
[29] = second compound 10 µM, first compound 3.16 µM
[30] = second compound 10 µM, first compound 10 µM
[31] = second compound 0.1 µM, first compound 0.00316 µM
[32] = second compound 0.1 µM, first compound 0.01 µM
[33] = second compound 0.316 µM, first compound 0.00316 µM
[34] = second compound 0.316 µM, first compound 0.01 µM
[35] = second compound 1 µM, first compound 0.00316 µM
[36] = second compound 1 µM, first compound 0.01 µM
[37] = second compound 3.16 µM, first compound 0.00316 µM
[38] = second compound 3.16 µM, first compound 0.01 µM
[39] = second compound 10 µM, first compound 0.00316 µM
[40] = second compound 10 µM, first compound 0.01 µM
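Note: spheroids exposed to compounds for seven days.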

SMILES | IC50 (second compound 0.1 µM) [nM] | IC50 (second compound 0.316 µM) [nM] | IC50 (second compound 1 µM) [nM] | IC50 (second compound 3.16 µM) [nM] | IC50 (second compound 10 µM) [nM] | viability, T/C [1] [%] | viability, T/C [2] [%] | viability, T/C [3] [%] | viability, T/C [4] [%] | viability, T/C [7] [%] | viability, T/C [8] [%] | viability, T/C [9] [%] | viability, T/C [10] [%] | viability, T/C [13] [%] | viability, T/C [14] [%] | viability, T/C [15] [%] | viability, T/C [16] [%] | viability, T/C [19] [%] | viability, T/C [20] [%] | viability, T/C [21] [%] | also measured
CC(C)c1c(-c2ccccc2)nc2c(C#N)c[nH]n2c1=O + Cc1ccccc1N=Nc1ccc(NC(=O)c2ccnn2C)c(C)c1 | > 10000 | > 10000 | > 10000 | > 10000 | < 31.6 | 105 | 106 | 108 | 110 | 106 | 104 | 111 | 104 | 96.2 | 94.4 | 98.4 | 98.6 | 80.9 | 79.2 | 82.7 | viability, T/C [5]: 111%; viability, T/C [6]: 104%; viability, T/C [11]: 102%; viability, T/C [12]: 99.4%; viability, T/C [17]: 90%; viability, T/C [18]: 96.4%; viability, T/C [22]: 88%; viability, T/C [23]: 81.8%; viability, T/C [24]: 67.3%; viability, T/C [25]: 45.5%; viability, T/C [26]: 50.8%; viability, T/C [27]: 55.2%; viability, T/C [28]: 45.4%; viability, T/C [29]: 47.4%; viability, T/C [30]: 42%
CC1COCCN1c1cc(-c2ccnn2C)c2ccnc(-c3ccn[nH]3)c2n1 (stereo not given) + Cc1ccccc1N=Nc1ccc(NC(=O)c2ccnn2C)c(C)c1 | 35.4 | 42 | 40.5 | 41 | 11.8 | 53.6 | 11.1 | 3.35 | 2.33 | 65.3 | 10.9 | 3.03 | 2.67 | 61.6 | 12 | 4.35 | 2.65 | 61.6 | 10.3 | 3.42 | viability, T/C [31]: 97.7%; viability, T/C [32]: 97.6%; viability, T/C [33]: 108%; viability, T/C [34]: 87.6%; viability, T/C [35]: 98.4%; viability, T/C [36]: 85.5%; viability, T/C [37]: 89.8%; viability, T/C [38]: 86.3%; viability, T/C [22]: 2.63%; viability, T/C [39]: 57.1%; viability, T/C [40]: 47.7%; viability, T/C [25]: 38.3%; viability, T/C [26]: 7.15%; viability, T/C [27]: 2.64%; viability, T/C [28]: 2.57%
COc1ccc([C@@H](O)c2cc(-c3ncnc4cc(N5CCOCC5)ccc34)c(F)cc2Cl)nn1 + Cc1ccccc1N=Nc1ccc(NC(=O)c2ccnn2C)c(C)c1 | 8290 | 7980 | 6550 | 5960 | < 31.6 | 107 | 106 | 91 | 80 | 92.9 | 117 | 110 | 95.7 | 112 | 96 | 100 | 78.9 | 85.4 | 92.9 | 83.2 | viability, T/C [5]: 74%; viability, T/C [6]: 44.3%; viability, T/C [11]: 71.4%; viability, T/C [12]: 44.8%; viability, T/C [17]: 60%; viability, T/C [18]: 44.2%; viability, T/C [22]: 69%; viability, T/C [23]: 66.4%; viability, T/C [24]: 38.9%; viability, T/C [25]: 46.2%; viability, T/C [26]: 49.9%; viability, T/C [27]: 47%; viability, T/C [28]: 48.3%; viability, T/C [29]: 38.9%; viability, T/C [30]: 26.2%
COc1cc(C2c3cc4c(cc3C(OC3OC5COC(C)OC5C(O)C3O)C3COC(=O)C23)OCO4)cc(OC)c1O (stereo not given) + Cc1cncc(-c2nc(NCCc3c[nH]c4ccccc34)c3ncn(C(C)C)c3n2)c1 | 551 | 601 | 395 | 170 | < 31.6 | 104 | 92.2 | 75 | 23.7 | 104 | 101 | 72.8 | 32.1 | 90.2 | 78 | 59.3 | 17.5 | 64.9 | 55.4 | 42 | viability, T/C [5]: 10.6%; viability, T/C [6]: 8.99%; viability, T/C [11]: 10.5%; viability, T/C [12]: 8.12%; viability, T/C [17]: 11.2%; viability, T/C [18]: 8.42%; viability, T/C [22]: 15.6%; viability, T/C [23]: 10.7%; viability, T/C [24]: 9.12%; viability, T/C [25]: 18.5%; viability, T/C [26]: 17.6%; viability, T/C [27]: 14.2%; viability, T/C [28]: 14.1%; viability, T/C [29]: 10.2%; viability, T/C [30]: 6.83%
COc1cccc2c1C(=O)c1c(O)c3c(c(O)c1C2=O)CC(O)(C(=O)CO)CC3OC1CC(N)C(O)C(C)O1 (stereo not given) + Cc1cncc(-c2nc(NCCc3c[nH]c4ccccc34)c3ncn(C(C)C)c3n2)c1 | < 31.6 | < 31.6 | < 31.6 | < 31.6 | < 31.6 | 23.9 | 15.2 | 5.94 | 0.65 | 24.4 | 19.5 | 6.25 | 0.34 | 19.7 | 17.9 | 5.13 | 0.84 | 17.6 | 12.1 | 3.2 | viability, T/C [5]: 2.45%; viability, T/C [6]: 1.44%; viability, T/C [11]: 2.13%; viability, T/C [12]: 1.46%; viability, T/C [17]: 1.28%; viability, T/C [18]: 1.33%; viability, T/C [22]: 0.73%; viability, T/C [23]: 0.57%; viability, T/C [24]: 0.58%; viability, T/C [25]: 11.9%; viability, T/C [26]: 5.06%; viability, T/C [27]: 0.48%; viability, T/C [28]: 0.21%; viability, T/C [29]: 0.27%; viability, T/C [30]: 0.26%
Nc1ncn(C2CC(O)C(CO)O2)c(=O)n1 (stereo not given) + Cc1cncc(-c2nc(NCCc3c[nH]c4ccccc34)c3ncn(C(C)C)c3n2)c1 | 863 | 871 | > 1000 | 354 | < 3.16 | 101 | 93.6 | 74.4 | 46.4 | 88.9 | 93.7 | 77.7 | 45.9 | 80.7 | 90.4 | 76 | 58.5 | 57.2 | 58.3 | 46 | viability, T/C [31]: 93.5%; viability, T/C [32]: 104%; viability, T/C [33]: 101%; viability, T/C [34]: 113%; viability, T/C [35]: 91.5%; viability, T/C [36]: 86%; viability, T/C [37]: 67.8%; viability, T/C [38]: 68.5%; viability, T/C [22]: 48.1%; viability, T/C [39]: 18.5%; viability, T/C [40]: 20.6%; viability, T/C [25]: 20.7%; viability, T/C [26]: 11.7%; viability, T/C [27]: 14.9%; viability, T/C [28]: 12.7%
